2 compounds from patent publication US11242321B2, “Salt forms of organic compound” (KAINOS MEDICINE INC., priority 2018, dated 2022) can be followed below.

A short description of series [1]: Aqueous solubility assessment of salt screen solids (visual). The following applies: Ca. 5 mg in up to 4000 μL water (1.25 mg/ml), shaken overnight at 50° C.; for Solubility assessment (dissolution in deionized water), salt from DIPE: salt prepared from DIPE; for Solubility assessment (dissolution in deionized water), salt From Ethanol: salt prepared from ethanol. How it is done:
Aqueous solubility assessment was performed using Ca. […] These samples were added to aliquots of deionized water up to a maximum of 4000 μL with the samples being shaken between additions to encourage dissolution prior to a visual inspection.

Series [2] is described as follows: Aqueous solubility, 24 h shake, gravimetric. The following applies: thermodynamic from solid, deionized water. The series is classed as physicochemical. The method, then:
Ca. 50 mg of each of the salts were weighed into a 2 mL HPLC vial prior to the addition of 1 mL of deionized water. […] The experiment was also repeated at 50° C.

A short description of the next series: FaSSIF/FeSSIF solubility. The format is physicochemical. The following applies: thermodynamic from solid, shaken 24 h at 37° C. The method, then:
Ca. 25 mg of each of the salts were weighed into a 2 mL HPLC vial prior to the addition of 1 mL of Fasting State Simulated Intenstinal Fluid (FaSSIS) solution. […] The experiment was also repeated using Fed State Simulated Intestinal Fluid (FeSSIF) solution.

Series [3] is described as follows: Stability at 40° C./75% RH. As to conditions: for Chemical purity post stability (40° C./75% RH): HPLC. The format is physicochemical.
The next series is described as follows: pH1 stability. The series is classed as physicochemical. The following applies: pH 1 buffer, 4 h at 37° C.; for Chemical purity post stability (pH 1 for 4 h): HPLC; for 1H NMR post stability (pH 1 for 4 h): cell continues: salt form is no longer present. How it is done: Ca. 25 mg of each of the salts were weighed into a 2 mL HPLC vial prior to the addition of 1 mL of pH 1 buffer. The samples were then shaken for 4 h at 37° C. before being filtered into SPE cartridges and dried overnight.

A short description of the next series: pH of saturated solution. The series is classed as physicochemical. The following applies: saturated solution in deionized water, room temperature. How it is done:
A saturated solution of each of the salts was prepared in 5 mL of deionized water at room temperature prior to analysis.

Series [4] is described as follows: Dynamic vapor sorption (DVS). The following applies: for XRPD post DVS: after double cycle 0-90% RH. The series is classed as physicochemical. The method, then:
SMS DVS Intrinsic dynamic vapour sorption instrument using DVS-Intrinsic control software v1.0.6.0. Analysis of the data was performed using the DVS analysis suite v7.0.13.1 macro program embedded in Microsoft Excel. Analysis was performed as a wt % change from 0-90% RH with isothermal plots also being examined.
Ca. 10-15 mg of sample was weighed into a stainless steel DVS basket before submitting for analysis. The samples were analysed over the range of 0-90% RH with a maximum time of 6 hours per humidity stage. Each sample was exposed to a double cycle. XRPD analysis of all samples was performed post-DVS.

Setting [5] is: shaken 24 h at 25° C., read-out: Aqueous solubility @ 25° C.
Where [6] appears, read: FaSSIF, read-out: FaSSIF solubility @ 37° C.
[7] abbreviates: FeSSIF, read-out: FeSSIF solubility @ 37° C.

As a reminder, the solubility is the concentration that dissolves in the medium under given conditions. Consider `O=C(CSc1ccc(Br)cc1)Nc1cn(CCc2ccccc2)nc1C(=O)[O-].[Na+]` [sodium salt, 4-(2-((4-bromophenyl)thio)acetamido)-1-phenethyl-1H-pyrazole-3-carboxylic Acid Sodium Salt], for which, in series [1], the “Solubility assessment (dissolution in deionized water), salt from DIPE” value is recorded as “Complete” and the “Solubility assessment (dissolution in deionized water), salt From Ethanol” value is listed as “Complete”. In addition, the solubility at 24 h in series [2] (setting [5]) is 2300 µg/mL. For the same compound, the solubility at 24 h in series [2] (shaken 24 h at 50° C.) was found to be 2400 µg/mL. Besides, the solubility at 24 h in the series “FaSSIF/FeSSIF solubility” (setting [6]) is 4000 µg/mL. For the same compound, the solubility at 24 h in “FaSSIF/FeSSIF solubility” (setting [7]) was determined as 3800 µg/mL. Besides, in series [3], the “Observation post stability (40° C./75% RH)” value was “No visible change”, the “XRPD post stability (40° C./75% RH)” value was “Crystalline - no change in form” and the “Chemical purity post stability (40° C./75% RH)” value was >99.9% (by peak area). Also, in “pH1 stability”, the “Observations post stability (pH 1 for 4 h)” value is given as “No visual change”; the “XRPD post stability (pH 1 for 4 h)” value is on record as “Partially crystalline: change in crystalline”; the “Chemical purity post stability (pH 1 for 4 h)” value is >99.9% (by peak area); the “1H NMR post stability (pH 1 for 4 h)” value is “No chemical shifts, indicating that salt form”. In addition, the “pH of rm temp sat'd sol'n” value in “pH of saturated solution” was 10.31. Besides, in series [4], the “DVS mass increase between 0-90% RH, first cycle” value is on record as “Ca. 11.7% mass increase between 0-90% RH on” and the “XRPD post DVS” value was “Crystalline - no change in form”.

Take `O=C(CSc1ccc(Br)cc1)Nc1cn(CCc2ccccc2)nc1C(=O)[O-].[K+]` [potassium salt, 4-(2-((4-bromophenyl)thio)acetamido)-1-phenethyl-1H-pyrazole-3-carboxylic acid potassium salt]: in series [1], the “Solubility assessment (dissolution in deionized water), salt from DIPE” value is “Complete” and the “Solubility assessment (dissolution in deionized water), salt From Ethanol” value was “Complete”. Moreover, the “Solubility assessment (dissolution in deionized water), salt from MIBK” value in series [1] (salt prepared from MIBK) is reported as “Partial”. For the same compound, the solubility at 24 h in series [2] (setting [5]) stood at 6600 µg/mL. In series [2] (shaken 24 h at 50° C.), this compound came in with a solubility at 24 h of 16200 µg/mL. Moreover, the solubility at 24 h in “FaSSIF/FeSSIF solubility” (setting [6]) was found to be 1500 µg/mL. Besides, the solubility at 24 h in “FaSSIF/FeSSIF solubility” (setting [7]) is 1600 µg/mL. Moreover, in series [3], the “Observation post stability (40° C./75% RH)” value is recorded as “No visible change”, the “XRPD post stability (40° C./75% RH)” value was “Partially crystalline-no change in form” and the “Chemical purity post stability (40° C./75% RH)” value is listed as >99.9% (by peak area). Also, in “pH1 stability”, the “Observations post stability (pH 1 for 4 h)” value was “No visual change”; the “XRPD post stability (pH 1 for 4 h)” value is given as “Partially crystalline: change in crystalline form compared to the”; the “Chemical purity post stability (pH 1 for 4 h)” value is recorded as >99.9% (by peak area); the “1H NMR post stability (pH 1 for 4 h)” value is reported as “Reduction in chemical shifts, indicating that salt form is no”. Moreover, the “pH of rm temp sat'd sol'n” value in the series “pH of saturated solution” is 9.21. In addition, in series [4], the “DVS mass increase between 0-90% RH, first cycle” value is “Ca. 5.7% mass increase between 0-90% RH on the first cycle” and the “XRPD post DVS” value is reported as “Partially crystalline-pattern is different from free acid indicating”.
